# Experimental data from patent US4055640A, “Compositions and methods for controlling the growth of bacteria, fungi and algae using certain derivatives of N-(2,2-dichlorovinyl)salicylamides” (Nippon Kayaku Co., Ltd., priority 1975, dated 1977).
# Counter-ions that a name gives are not always drawn.
# Assays:
# green algae [1] = assay: Degree of propagation on slime test boards (Example 27); type: cell-based; details: same method, shaking culture for 2 days
# Procedure, shortened: (§1)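 Wood slime test boards were soaked in Waxman's liquid medium holding 0.02 part active compound (as 10% water-soluble concentrate) per 100 parts medium. Medium was inoculated with bacteria from a circular water system, fungi or green algae and shake-cultured 2 days at 27°-34° C. Propagation on the boards was scored with symbols.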
# fungi [2] = assay: as above; type: cell-based; details: same method, shaking culture for 2 days
# Procedure, shortened: as §1
# [3] = tested on: bacteria gathered from circular water system; assay: as above; type: cell-based; details: shaking culture for 2 days
# Procedure, shortened: as §1
# [4] = tested on: botrytis cinerea (gray mold); assay: Exterminating test on gray mold of tomato (Experimental Example 5); type: in vivo; design: scale not given here; details: 1,000 ppm, 48 hours after inoculation, kidney bean leaves
# Experimental: Exterminating test on gray mold of tomato The seedlings of kidney beans (variety: Orient) of 5-6 leaves stage were employed in this test. Eighty percent (80%) wettable powder of the present invention was diluted with water and sprayed over the seedlings in an amount of 10 ml per pot. The leaves were cut from the plant at 24 hours after spraying, and placed in the petri dishes (12 cm in diameter). Thereafter disks (5 mm in diameter) were cut with a cork borer from potato dextrose agar on which the pathogen (botrytis cinerea) was cultured. The disks were placed on the leaves. The dishes were placed in such a moistural condition as to cause the pathogen to propagate. Thiophanate methyl 70% wettable powder on the market was used as a control and tested by the same method. After forty eight (48) hours after inoculation, diameters of the lesions were observed, and an "Effect Index" was calculated as follows; [formula]
# summer orange seedlings = assay: Phytotoxicity on summer orange seedlings (Experimental Example 6); type: in vivo; details: 1,000 ppm
# [5] = tested on: seedlings of kidney beans (variety: Orient); assay: Phytotoxicity on kidney beans (Experimental Example 5); type: in vivo; details: 1,000 ppm
# Staphylococcus aureus [6] = assay: Minimum inhibitory amount, dilution methods (Example 24); type: cell-based; details: (2) glucose bouillon medium dilution method
# Description: (§2) Bactericidal activity and fungicidal activity of the active compounds of the present invention were examined by potato-dextrose agar dilution method, or [2] glucose bouillon medium dilution method. The results are shown in Table 10 below as the minimum inhibitory concentration (the minimum concentration of active compound found to produce 100% control of the test bacteria and fungi).
# Bacillus subtilis [7] = assay: as above; type: cell-based; details: (2) glucose bouillon medium dilution method
# Description: as §2
# Penicillium Citrinum [8] = assay: as above; type: cell-based; details: (1) potato-dextrose agar dilution method
# Description: as §2
# Cladosporium harbarum [9] = assay: as above; type: cell-based; details: (1) potato-dextrose agar dilution method
# Description: as §2
# Escherichia coli [10] = assay: as above; type: cell-based; details: (2) glucose bouillon medium dilution method
# Description: as §2
# Aspergillus niger [11] = assay: as above; type: cell-based; details: (1) potato-dextrose agar dilution method
# Description: as §2
# [12] = tested on: Bacteria, fungi and slime; assay: Inhibition of bacteria, fungi and slime in use (Example 23); details: water soluble concentrate; 10-20 ppm in water, 0.01-0.1% in pastes
# Experimental: Before application, the concentrate was diluted 500-1000 times with water and sprayed on the inside of cotes to prevent the growth of bacteria and fungi.
# The solution was added to water in circular water systems to inhibit the growth of slime. The concentration of Compound No. 21 in the water was 10-20 ppm.
# An amount of 0.01-0.1% of Compound No. 21 as the solution was added to pastes or binding agents to prevent rottenness of them.
# [13] = tested on: Aspergillus niger, Penicillium citrinum, Cladosporium harbarum and chaetomium globosum; assay: Degree of growth inhibition of fungi on treated beach plates (Example 17); type: cell-based; design: scale not given here; details: numerical rating, 2 weeks
# Experimental: The emulsifiable concentrates which were prepared by Example 10 were diluted with water 400 times and 800 times to form emulsions.
# The square plates of beach of which a side was 5 cm long and thickness was 5 mm were dipped into the emulsion for 2 minutes and dried for 24 hours at room temperature.
# The square plates were placed on the surface of agar plates. The suspensions which contained spores of Aspergillus niger, Penicillium citrinum, Cladosporium harbarum and chaetomium globosum were respectively sprayed on the agar plates and the square plates.
# The test fungi were cultivated in the incubator at the humidity of 95% and the temperature of 28° C for 2 weeks.
# The degree of growth inhibition is defined in terms of the following numerical ratings.
# Staphylococcus aureus [14] = assay: Minimum inhibitory concentration, dilution methods (Example 14); type: cell-based; details: (3) glucose bouillon medium dilution method
# Description: (§3) Bacteriocidal activity and fungicidal activity of the active compounds of the present invention were examined by potato-dextrose agar dilution method, [2] waxman's liquid medium dilution method or [3] glucose bouillon medium dilution method. The results are shown in Table 4 below as the minimum inhibitory concentration (the minimum concentration of active compound found to produce 100% control of the test bacteria and fungi).
# Bacillus subtilis [15] = assay: as above; type: cell-based; details: (3) glucose bouillon medium dilution method
# Description: as §3
# Penicillium Citrinum [16] = assay: as above; type: cell-based; details: (1) potato-dextrose agar dilution method
# Description: as §3
# Cladosporium harbarum [17] = assay: as above; type: cell-based; details: (1) potato-dextrose agar dilution method
# Description: as §3
# Escherichia coli [18] = assay: as above; type: cell-based; details: (3) glucose bouillon medium dilution method
# Description: as §3
# Aspergillus niger [19] = assay: as above; type: cell-based; details: (1) potato-dextrose agar dilution method
# Description: as §3
# Staphylococcus aureus [20] = assay: Growth inhibition zone around treated cotton cloth (Example 18); type: cell-based; details: emulsifiable concentrate diluted 1000 times
# Experimental: (§4) The emulsifiable concentrates which were prepared by Example 10 were diluted with water 1000 times to form an emulsion. A cloth of cotton was soaked into each emulsion for 2 minutes. The clothes were dried at room temperature and cut into a square of which a side was 1 cm long. Each kind of test bacteria and fungi was inoculated, separately on plates of potato-agar and one square cloth was placed on each of such plates. Test bacteria and fungi were cultivated at 28° C for 4 days. The width of the region of growth-inhibition which was formed a circumference of the cloth was examined.
# Bacillus subtilis [21] = assay: as above; type: cell-based; details: emulsifiable concentrate diluted 1000 times
# Experimental: as §4
# Penicillium Citrinum [22] = assay: as above; type: cell-based; details: emulsifiable concentrate diluted 1000 times
# Experimental: as §4
# Aspergillus niger [23] = assay: as above; type: cell-based; details: emulsifiable concentrate diluted 1000 times
# Experimental: as §4
# [24] = tested on: Rhizoctonia solani (damping-off of cucumber); assay: Exterminating test on damping-off of cucumber (Experimental Example 3); type: in vivo; details: 1,000 ppm, soil drench 50 ml per pot, 10 days
# Procedure, shortened: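 Percentage of healthy seedlings was scored 10 days post inoculation, with PCNB 50% wettable powder run alongside as reference. Each pot held 10 Azumamidori cucumber seeds in field soil carrying 5 g Rhizoctonia solani. Soil drench: 50 ml water suspension of 80% wettable powder; greenhouse.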
# [25] = tested on: seedling blight of rice plant (pathogen Fusarium sp. and Rhizoctonia sp.); assay: Exterminating test on seedling blight of rice plant (Experimental Example 1); type: in vivo; details: 0.25g/box a.i., 5% dust mixed with soil
# Procedure, shortened: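 Pathogen-contaminated nursery soil (Fusarium sp., Rhizoctonia sp.) mixed with 5% compound dust at 5 g per box; Nihonbare rice sown, grown 7 days at 17° C in lighting chamber, then moved to field. Assessed 10 days later as percentage of healthy seedlings; commercial 4% hydroxyisoxazol dust run as control.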
# [26] = tested on: Fusarium wilt of cucumber; assay: Exterminating test on Fusarium wilt of cucumber (Experimental Example 4); type: in vivo, Fusarium oxysporum f, cucumerinum; details: 500 ppm, soil drench 100 ml per pot, two weeks
# Procedure, shortened: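 Pots of steam-sterilized soil mixed with 20 g infested soil, sown with 18 cucumber seeds (Tokiwazibai), drenched with 100 ml aqueous suspension of 80% wettable powder. Benlate 50% wettable powder run as control. Disease scored two weeks after planting as percentage of healthy seedlings.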
# [27] = tested on: cucumber (variety; Tokiwazibai); assay: Phytotoxicity on cucumber (Experimental Example 4); type: in vivo; details: 500 ppm
# Experimental: Exterminating test on Fusarium wilt of cucumber Twenty (20) grams of infected soil was added uniformly into each pot which was filled with steam sterilized field soil, then 18 seeds of cucumber (variety; Tokiwazibai) were sowed in each pot. Eighty percent (80%) wettable powder of the present invention was diluted with water to obtain a suspension, and each pot was drenched with the suspension in an amount of 100 ml. Fifty percent (50%) wettable powder of methyl-1-(butylcarbamoyl) 2-benzimidazol carbamate (hereinafter referred to as Benlate) on the market was used as a control and tested by the same method. After two weeks of planting, degrees attacked by the pathogen was observed and a "percentage of healthy seedlings" was calculated as follows: [formula]
# [28] = tested on: cucumber (variety: Azumamidori); assay: Phytotoxicity on cucumber (Experimental Example 3); type: in vivo; details: 1,000 ppm
# green algae [29] = assay: Degree of propagation on slime test boards (Example 19); type: cell-based; design: key: -: no propagation; +: the area of propagation is 1 - 25% on the slime test boards.; ++: the area of propagation is 26 - 50% on the slime test boards.; +++: the area of propagation is 51 - 75% on the slime test boards.; ++++: the area of propagation is 76 - 100% on the slime test boards
# Experimental: (§5) Zero point zero two (0.02) part of active compounds in the form of 10% water soluble concentrate which was prepared by Example 13 was added into 100 parts of Waxman's liquid medium. Pieces of wood and iron (hereafter referred to as the slime test boards) were soaked into the Waxman's liquid medium. The bacteria which were gathered from circular water system were inoculated upon the Waxman's liquid medium and incubated at 27° C-34° C by shaking culture. The degree of propagation of the bacteria on the slime test boards was examined.
# (§6) The growth-inhibiting activity of active compounds against the fungi and the green algae was also examined by the same method as mentioned above.
# (§7) The degree of propagation of the bacteria, fungi or green algae on the slime test boards is defined in terms of the following symbols.
# fungi [30] = assay: as above; type: cell-based; design: key: -: no propagation; +: the area of propagation is 1 - 25% on the slime test boards.; ++: the area of propagation is 26 - 50% on the slime test boards.; +++: the area of propagation is 51 - 75% on the slime test boards.; ++++: the area of propagation is 76 - 100% on the slime test boards
# Experimental: as §5, §6, §7
# [31] = tested on: bacteria gathered from circular water system; assay: as above; type: cell-based; design: key: -: no propagation; +: the area of propagation is 1 - 25% on the slime test boards.; ++: the area of propagation is 26 - 50% on the slime test boards.; +++: the area of propagation is 51 - 75% on the slime test boards.; ++++: the area of propagation is 76 - 100% on the slime test boards
# Experimental: as §5, §6, §7
# Pseudomonas fluorescens = assay: Minimum inhibitory concentration, dilution methods (Example 14); type: cell-based; details: (1) potato-dextrose agar dilution method
# Description: as §3
compound,measurement,setting,value
"O=C(NC=C(Cl)Cl)c1cc(Cl)ccc1O [Compound No. 21, sodium salt of N-(2'-2'-dichlorovinyl)-5-chlorosalicylamide]",Degree of propagation,green algae [1],-
same,Degree of propagation,fungi [2],-
same,Degree of propagation,[3],-
same,Effect Index,[4],80
same,Phytotoxicity,summer orange seedlings,Nil
same,Phytotoxicity,[5],Nil
same,Minimum inhibitory amount,Staphylococcus aureus [6],2.5 µg/mL
same,Minimum inhibitory amount,Bacillus subtilis [7],2.5 µg/mL
same,Minimum inhibitory amount,Penicillium Citrinum [8],5 µg/mL
same,Minimum inhibitory amount,Cladosporium harbarum [9],5 µg/mL
same,Minimum inhibitory amount,Escherichia coli [10],40 µg/mL
same,Minimum inhibitory amount,Aspergillus niger [11],10 µg/mL
same,"inhibition of bacteria, fungi and slime",[12],inhibited for a long time
O=C(NC=C(Cl)Cl)c1ccccc1[O-].O=C(NC=C(Cl)Cl)c1ccccc1[O-].[Zn+2] [compound 24],Degree of growth inhibition,[13]; 0.0125 %,3
same,Degree of growth inhibition,[13]; 0.025 %,3
same,minimum inhibitory concentration,Staphylococcus aureus [14],5 mc g/ml
same,minimum inhibitory concentration,Bacillus subtilis [15],2.5 mc g/ml
same,minimum inhibitory concentration,Penicillium Citrinum [16],10 mc g/ml
same,minimum inhibitory concentration,Cladosporium harbarum [17],2.5 mc g/ml
same,minimum inhibitory concentration,Escherichia coli [18],40 mc g/ml
same,minimum inhibitory concentration,Aspergillus niger [19],10 mc g/ml
same,width of the growth inhibition zone,Staphylococcus aureus [20],8 mm
same,width of the growth inhibition zone,Bacillus subtilis [21],10 mm
same,width of the growth inhibition zone,Penicillium Citrinum [22],5 mm
same,width of the growth inhibition zone,Aspergillus niger [23],5 mm
same,Percentage of healthy seedlings,[24],100%
same,Percentage of healthy seedlings,[25],71.3%
same,Percentage of healthy seedlings,[26],47.0%
"CCCCNC(=O)n1c(NC(=O)OC)nc2ccccc21 [Benlate, methyl-1-(butylcarbamoyl) 2-benzimidazol carbamate, reference compound]",Phytotoxicity,[27],Nil
same,pest or weed control at 500 ppm,"[26]; Fusarium, 336 h, read-out: Percentage of healthy seedlings",45%
"O=[N+]([O-])c1c(Cl)c(Cl)c(Cl)c(Cl)c1Cl [PCNB, pentachloronitro benzene, reference compound]",pest or weed control at 1000 ppm,"[24]; Rhizoctonia solani, 240 h, read-out: Percentage of healthy seedlings",45%
same,Phytotoxicity,[28],Nil
O=C(NC=C(Cl)Cl)c1ccccc1O [Compound No. 23],Degree of propagation,green algae [29]; 7th day,-
same,Degree of propagation,green algae [29]; 14th day,-
same,Degree of propagation,green algae [29]; 21st day,+ (the area of propagation is 1 - 25% on the slime test boards.)
same,Degree of propagation,fungi [30]; 7th day,-
same,Degree of propagation,fungi [30]; 14th day,-
same,Degree of propagation,fungi [30]; 21st day,-
same,Degree of propagation,[31]; 7th day,-
same,Degree of propagation,[31]; 14th day,-
same,Degree of propagation,[31]; 21st day,+ (the area of propagation is 1 - 25% on the slime test boards.)
same,Degree of growth inhibition,[13]; 0.0125 %,3
same,Degree of growth inhibition,[13]; 0.025 %,3
same,Phytotoxicity,summer orange seedlings,Nil
same,minimum inhibitory concentration,Staphylococcus aureus [14],10 mc g/ml
same,minimum inhibitory concentration,Bacillus subtilis [15],5 mc g/ml
same,minimum inhibitory concentration,Penicillium Citrinum [16],10 mc g/ml
same,minimum inhibitory concentration,Cladosporium harbarum [17],5 mc g/ml
same,minimum inhibitory concentration,Pseudomonas fluorescens,13 mc g/ml
same,minimum inhibitory concentration,Escherichia coli [18],60 mc g/ml
same,minimum inhibitory concentration,Aspergillus niger [19],10 mc g/ml
